Data on two molecules can be found in ChEMBL document CHEMBL2074417, “The bisbenzylisoquinoline alkaloids, tetrandine and fangchinoline, enhance the cytotoxicity of multidrug resistance-related drugs via modulation of P-glycoprotein” (Anticancer Drugs, 1998).

Data set [1] concerns the target T1, ATP-dependent translocase ABCB1 (Homo sapiens, UniProt P08183). In words: TP_TRANSPORTER: increase in Rhodamine 123 intracellular accumulation (R123: 4 uM, Tetrandine: 3 uM) in HCT15 cells. Particulars: hct-15, 3 µM. Type of data set: functional, cell-based.
The target of data set [2] is T1, ATP-dependent translocase ABCB1. In words: TP_TRANSPORTER: increase in Rhodamine 123 intracellular accumulation (R123: 4 uM, Fangchinoline: 3 uM) in HCT15 cells. It is filed as functional, cell-based. The following applies: hct-15, 3 µM.

T1 sequence (P08183 whole entry): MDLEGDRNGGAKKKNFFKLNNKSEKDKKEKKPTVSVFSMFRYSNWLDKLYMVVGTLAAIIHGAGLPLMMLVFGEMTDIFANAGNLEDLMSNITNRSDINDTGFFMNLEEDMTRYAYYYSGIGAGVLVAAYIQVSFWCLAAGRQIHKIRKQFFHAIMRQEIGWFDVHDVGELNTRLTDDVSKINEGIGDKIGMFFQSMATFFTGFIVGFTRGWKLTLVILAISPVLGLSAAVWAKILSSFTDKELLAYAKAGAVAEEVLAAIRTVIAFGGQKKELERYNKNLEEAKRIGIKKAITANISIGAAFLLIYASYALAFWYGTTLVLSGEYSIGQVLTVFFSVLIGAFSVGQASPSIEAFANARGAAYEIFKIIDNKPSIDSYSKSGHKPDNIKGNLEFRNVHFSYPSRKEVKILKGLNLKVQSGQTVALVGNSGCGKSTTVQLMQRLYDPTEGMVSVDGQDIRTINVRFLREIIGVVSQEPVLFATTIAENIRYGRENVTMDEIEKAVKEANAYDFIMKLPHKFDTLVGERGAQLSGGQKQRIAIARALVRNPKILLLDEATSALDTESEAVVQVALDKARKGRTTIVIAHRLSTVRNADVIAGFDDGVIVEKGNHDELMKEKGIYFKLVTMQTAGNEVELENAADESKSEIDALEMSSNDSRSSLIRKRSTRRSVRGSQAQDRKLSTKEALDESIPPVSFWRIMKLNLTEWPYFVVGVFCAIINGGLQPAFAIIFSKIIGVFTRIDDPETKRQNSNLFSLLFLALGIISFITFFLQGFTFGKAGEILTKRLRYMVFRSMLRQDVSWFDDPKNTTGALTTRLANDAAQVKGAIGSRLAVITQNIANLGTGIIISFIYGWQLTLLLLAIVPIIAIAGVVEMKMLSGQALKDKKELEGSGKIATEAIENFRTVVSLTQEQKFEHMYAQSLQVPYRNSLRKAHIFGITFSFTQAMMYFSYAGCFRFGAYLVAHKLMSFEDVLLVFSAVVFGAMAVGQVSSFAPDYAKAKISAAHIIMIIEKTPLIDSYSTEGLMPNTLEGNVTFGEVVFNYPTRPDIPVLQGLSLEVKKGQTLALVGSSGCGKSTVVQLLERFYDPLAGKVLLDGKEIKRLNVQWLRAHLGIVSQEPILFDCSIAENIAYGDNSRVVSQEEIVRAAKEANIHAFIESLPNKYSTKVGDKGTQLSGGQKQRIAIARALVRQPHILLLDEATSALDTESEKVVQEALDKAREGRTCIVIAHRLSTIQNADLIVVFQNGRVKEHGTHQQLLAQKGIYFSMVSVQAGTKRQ

Regarding `COc1ccc2cc1Oc1ccc(cc1)C[C@H]1c3cc(c(OC)cc3CCN1C)Oc1c(OC)c(OC)cc3c1[C@H](C2)N(C)CC3` [FANCHININ], the Activity in data set [1] was 2.5 fold.

Take `COc1ccc2cc1Oc1ccc(cc1)C[C@H]1c3cc(c(OC)cc3CCN1C)Oc1c(O)c(OC)cc3c1[C@H](C2)N(C)CC3` [FANGCHINOLINE]: the Activity in data set [2] is listed as 2.4 fold.
